Measurements published in patent US11225465B2, “Albicidin derivatives, their use and synthesis” (TECHNISCHE UNIVERSITÄT BERLIN, priority 2017, dated 2022).
Converted amounts (≈) assume the structure as drawn.

Key:
Assay type in all cases: cell-based
Bacillus subtilis DSM10 = assay: Microdilution assay, MIC; settings: DSM10, 20 h, read-out: MIC B. subtilis DSM10
Experimental: (§1) The tests were performed using the micro dilution method.
(§2) The determination of MIC values was performed according to the ninth edition of the Approved Standard M07-A9 (CLSI. Methods for Dilution Antimicrobial Susceptibility Tests for Bacteria That Grow Aerobically; Approved Standard—Ninth Edition. CLSI document M07-A9. Wayne, Pa.: Clinical and Laboratory Standards Institute; 2012.)
(§3) The test was carried out for four different bacterial strains (E. coli DSM 1116 [gram negative], B. subtilis DSM 10 [gram positive], M. luteus DSM 1790 [gram positive], S. typhimurium TA100 [gram negative]). 20 μL of cryo stock of each strain were inoculated in 20 mL of LB media (Lysogeny broth: 10 g/L peptone, 5 g/L yeast extract, 5 g/L NaCl) followed by incubation over night at 37° C., 200 rpm. The test inoculum was adjusted by the 0.5 McFarland Standard (OD625 from 0.08 to 0.1). Within 15 min of preparation, the adjusted inoculum suspension was diluted in MHBII media (BBL T M Mueller-Hinton Broth II, Becton, Dickinson and Company, N.J./USA) so that each well contained approximately 5×10^5 CFU/mL in a final volume of 100 μL. 95 μL of the inoculum were applied per well and 5 μL of the (diluted) antibiotic substance were added.
(§4) Previously the dry antibiotic compounds were dissolved in DMSO (100%) with a concentration of 2560 μg/mL and the resulting stock solutions were further diluted in DMSO (100%). 5 μL of each antibiotic dilution were applied to the microdilution tray to reach final concentrations of 64 μg/mL to 0.008 μg/mL. One row of each well plate was left as a growth control without antibiotic substances and another row of the microdilution tray was used as sterility control (only MHB II-media). The antimicrobial effect of the solvent (DMSO) was tested by adding 5 μL DMSO to several wells without antibiotics.
(§5) Purity check and cell titer control were performed according to International Standard M07-A9 on Mueller-Hinton II Agar (Mueller Hinton II Broth, 15 g/L agar-agar).
(§6) Both microdilution trays and agar plates were incubated at 37° C. for 20 h and subsequently analyzed visually.

E. coli DSM 1116 = assay: Microdilution assay, MIC; settings: Escherichia coli, DSM1116, 20 h, read-out: MIC E. coli DSM1116
Experimental: as §1, §2, §3, §4, §5, §6

[1] = system: Micrococcus luteus DSM1790; assay: Microdilution assay, MIC; settings: DSM1790, 20 h, read-out: MIC M. luteus DSM1790
Experimental: as §1, §2, §3, §4, §5, §6

S. typhimurium TA100 = assay: Microdilution assay, MIC; settings: Salmonella enterica, 20 h, read-out: MIC S. typhimurium TA100
Experimental: as §1, §2, §3, §4, §5, §6

[2] = system: Acinetobacter baumannii PEG 10-57-31; assay: MHK against further strains (Table 2); settings: Nr. 23 Acinetobacter baumannii PEG 10-57-31, clinical isolate; KBE/ml 2.60E+05
Experimental: as §1, §2

[3] = system: Enterobacter aerogenes 220-1-22; assay: MHK against further strains (Table 2); settings: Nr. 18 Enterobacter aerogenes 220-1-22, clinical isolate
Experimental: as §1, §2

[4] = system: Enterobacter asburiae PEG-13-74-62; assay: MHK against further strains (Table 2); settings: Nr. 19 Enterobacter asburiae PEG-13-74-62, clinical isolate; KBE/ml 8.20E+05
Experimental: as §1, §2

[5] = system: Enterobacter cloacae PEG-10-52-78; assay: MHK against further strains (Table 2); settings: Nr. 17 Enterobacter cloacae PEG-10-52-78, clinical isolate
Experimental: as §1, §2

[6] = system: Enterococcus faecium PEG 13-17-59; assay: MHK against further strains (Table 2); settings: Nr. 29 Enterococcus faecium PEG 13-17-59, clinical isolate
Experimental: as §1, §2

[7] = system: Enterococcus faecium PEG 13-73-65; assay: MHK against further strains (Table 2); settings: Nr. 30 Enterococcus faecium PEG 13-73-65, clinical isolate
Experimental: as §1, §2

[8] = system: Enterococcus faecium PEG 13-9-13; assay: MHK against further strains (Table 2); settings: Nr. 28 Enterococcus faecium PEG 13-9-13, clinical isolate
Experimental: as §1, §2

[9] = system: Escherichia coli 100-2-49; assay: MHK against further strains (Table 2); settings: Nr. 2 Escherichia coli 100-2-49, clinical isolate; KBE/ml 3.80E+05
Experimental: as §1, §2

[10] = system: Escherichia coli ATCC 25922; assay: MHK against further strains (Table 2); settings: Nr. 1 Escherichia coli ATCC 25922; KBE/ml 2.80E+05
Experimental: as §1, §2

[11] = system: Escherichia coli PEG 10-79-22; assay: MHK against further strains (Table 2); settings: Nr. 11 Escherichia coli PEG 10-79-22, clinical isolate
Experimental: as §1, §2

[12] = system: Klebsiella pneumoniae 310-1-54; assay: MHK against further strains (Table 2); settings: Nr. 14 Klebsiella pneumoniae 310-1-54, clinical isolate
Experimental: as §1, §2

[13] = system: Klebsiella pneumoniae PEG-10-48-8; assay: MHK against further strains (Table 2); settings: Nr. 12 Klebsiella pneumoniae PEG-10-48-8, clinical isolate
Experimental: as §1, §2

[14] = system: Klebsiella pneumoniae PEG-10-75-61; assay: MHK against further strains (Table 2); settings: Nr. 13 Klebsiella pneumoniae PEG-10-75-61, clinical isolate; KBE/ml 4.00E+05
Experimental: as §1, §2

[15] = system: Klebsiella pneumoniae PEG-10-90-74; assay: MHK against further strains (Table 2); settings: Nr. 5 Klebsiella pneumoniae PEG-10-90-74, clinical isolate; KBE/ml 4.00E+05
Experimental: as §1, §2

[16] = system: Pseudomonas aeruginosa PEG-10-2-61; assay: MHK against further strains (Table 2); settings: Nr. 7 Pseudomonas aeruginosa PEG-10-2-61, clinical isolate
Experimental: as §1, §2

[17] = system: Pseudomonas aeruginosa PEG-10-47-57; assay: MHK against further strains (Table 2); settings: Nr. 20 Pseudomonas aeruginosa PEG-10-47-57, clinical isolate
Experimental: as §1, §2

[18] = system: Staphylococcus aureus ATCC 29213; assay: MHK against further strains (Table 2); settings: Nr. 8 Staphylococcus aureus ATCC 29213; KBE/ml 6.60E+05
Experimental: as §1, §2

[19] = system: Staphylococcus aureus PEG 10-38-22; assay: MHK against further strains (Table 2); settings: Nr. 9 Staphylococcus aureus PEG 10-38-22, clinical isolate
Experimental: as §1, §2

[20] = system: Staphylococcus aureus PEG 13-71-26; assay: MHK against further strains (Table 2); settings: Nr. 27 Staphylococcus aureus PEG 13-71-26, clinical isolate
Experimental: as §1, §2

With `COc1c(NC(=O)c2ccc(NC(=O)c3ccc(NC(=O)[C@H](Cc4c[nH]cn4)NC(=O)c4ccc(NC(=O)/C(C)=C/c5ccc(O)cc5)cc4)cc3)c(OC)c2O)ccc(C(=O)O)c1O` [Compound 1, L-His-albicidin] the MIC (Bacillus subtilis DSM10) was 500 µg/mL (≈ 566 µM), the MIC (E. coli DSM 1116) was 63 µg/mL (≈ 71.3 µM) and the MIC [1] was 4000 µg/mL (≈ 4530 µM). For the same compound, the MIC (S. typhimurium TA100) was 31 µg/mL (≈ 35.1 µM), the MHK [2] was 32 mg/L and the MHK [3] was 32 mg/L. For the same compound, the MHK [4] was 32 mg/L, the MHK [5] was 32 mg/L and the MHK [6] was 32 mg/L. For the same compound, the MHK [7] was 32 mg/L, the MHK [8] was 32 mg/L and the MHK [9] was 0.5 mg/L. It also gave an MHK [10] of 0.063 mg/L, an MHK [11] of 0.25 mg/L and an MHK [12] of 32 mg/L. For the same compound, the MHK [13] was 32 mg/L, the MHK [14] was 32 mg/L and the MHK [15] was 32 mg/L. It also gave an MHK [16] of 32 mg/L, an MHK [17] of 8 mg/L and an MHK [18] of 8 mg/L. For the same compound, the MHK [19] was 32 mg/L and the MHK [20] was 4 mg/L.

In the case of `COc1c(NC(=O)c2ccc(NC(=O)c3ccc(NC(=O)[C@H](CN(C)C)NC(=O)c4ccc(NC(=O)/C(C)=C/c5ccc(O)cc5)cc4)cc3)c(OC)c2O)ccc(C(=O)O)c1O` [Compound 2, L-DMDAP-Albicidin], the MIC (Bacillus subtilis DSM10) is reported as 125 µg/mL (≈ 145 µM), the MIC (E. coli DSM 1116) is reported as 125 µg/mL (≈ 145 µM) and the MIC [1] is reported as 2000 µg/mL (≈ 2320 µM). The MIC (S. typhimurium TA100) was 31 µg/mL (≈ 36 µM), the MHK [2] was 32 mg/L and the MHK [3] was 32 mg/L. For the same compound, the MHK [4] was 32 mg/L, the MHK [5] was 32 mg/L and the MHK [6] was 32 mg/L. For the same compound, the MHK [7] was 32 mg/L, the MHK [8] was 32 mg/L and the MHK [9] was 32 mg/L. It also gave an MHK [10] of 0.125 mg/L, an MHK [11] of 32 mg/L and an MHK [12] of 32 mg/L. It also gave an MHK [13] of 32 mg/L, an MHK [14] of 32 mg/L and an MHK [15] of 32 mg/L. It also gave an MHK [16] of 32 mg/L, an MHK [17] of 32 mg/L and an MHK [18] of 32 mg/L. The MHK [19] was 32 mg/L and the MHK [20] was 32 mg/L.

`COc1c(NC(=O)c2ccc(NC(=O)c3ccc(NC(=O)C(Cc4c[nH]nn4)NC(=O)c4ccc(NC(=O)/C(C)=C/c5ccc(O)cc5)cc4)cc3)c(OC)c2O)ccc(C(=O)O)c1O` [Compound 3, L-Azahis-Albicidin] gave an MIC (Bacillus subtilis DSM10) of 125 µg/mL (≈ 141 µM), an MIC (E. coli DSM 1116) of no more than 16 µg/mL and an MIC [1] of 500 µg/mL (≈ 565 µM). The MIC (S. typhimurium TA100) was no more than 16 µg/mL, the MHK [2] was 32 mg/L and the MHK [3] was 4 mg/L. It also gave an MHK [4] of 32 mg/L, an MHK [5] of 32 mg/L and an MHK [6] of 8 mg/L. For the same compound, the MHK [7] was 8 mg/L, the MHK [8] was 8 mg/L and the MHK [9] was 0.063 mg/L. The MHK [10] was 0.008 mg/L, the MHK [11] was 0.063 mg/L and the MHK [12] was 32 mg/L. For the same compound, the MHK [13] was 32 mg/L, the MHK [14] was 32 mg/L and the MHK [15] was 32 mg/L. For the same compound, the MHK [16] was 8 mg/L, the MHK [17] was 4 mg/L and the MHK [18] was 0.5 mg/L. It also gave an MHK [19] of 2 mg/L and an MHK [20] of 0.125 mg/L.

`COc1c(NC(=O)c2ccc(NC(=O)c3ccc(NC(=O)[C@@H](CN(C)C)NC(=O)c4ccc(NC(=O)/C(C)=C/c5ccc(O)cc5)cc4)cc3)c(OC)c2O)ccc(C(=O)O)c1O` [Compound 16, D-DMDAP-Albicidin] showed an MIC (Bacillus subtilis DSM10) of 1000 µg/mL (≈ 1160 µM), an MIC (E. coli DSM 1116) of 500 µg/mL (≈ 581 µM) and an MIC [1] of no less than 8000 µg/mL. It also gave an MIC (S. typhimurium TA100) of 250 µg/mL (≈ 290 µM), an MHK [2] of 32 mg/L and an MHK [3] of 32 mg/L. For the same compound, the MHK [4] was 32 mg/L, the MHK [5] was 32 mg/L and the MHK [6] was 32 mg/L. The MHK [7] was 32 mg/L, the MHK [8] was 32 mg/L and the MHK [9] was 32 mg/L. For the same compound, the MHK [10] was 16 mg/L, the MHK [11] was 32 mg/L and the MHK [12] was 32 mg/L. It also gave an MHK [13] of 32 mg/L, an MHK [14] of 32 mg/L and an MHK [15] of 32 mg/L. For the same compound, the MHK [16] was 32 mg/L, the MHK [17] was 32 mg/L and the MHK [18] was 32 mg/L. For the same compound, the MHK [19] was 32 mg/L and the MHK [20] was 32 mg/L.
